Data reported in US8017557B2, “Benzodioxole derivatives as modulators of proteolytic activity in plants” (Endura S.p.A., priority 2002, dated 2011).
Where two headings read alike, the source gives them in different places.

Columns and labels:
[1] = test system: carboxypeptidase activity in cotton sprouts; conditions: for absorbance at 280 nm, Exp. n° 1, PBO Treated Cotton Sprouts / absorbance at 280 nm, Exp. n° 2, PBO Treated Cotton Sprouts / absorbance at 280 nm, Mean, PBO Treated Cotton Sprouts / Carboxypeptidase Activity (U), PBO Treated Cotton Sprouts: pH 6.5; for absorbance at 280 nm, Exp. n° 1, PBO Treated Cotton Sprouts / absorbance at 280 nm, Exp. n° 2, PBO Treated Cotton Sprouts / absorbance at 280 nm, Mean, PBO Treated Cotton Sprouts / % difference of carboxypeptidase activity, treated vs untreated / Δ U (carboxypeptidase activity, untreated vs PBO treated) / Carboxypeptidase Activity (U), PBO Treated Cotton Sprouts: 4th day of germination, PBO 1% w/v
Protocol: The extent of proteolytic activity in cotton sprouts was measured at 30′, 60′, 90′ and […] after suspension of the acetonic powder in aqueous buffer at pH 6.5 by determining the absorbance at 280 nm in a quartz cuvette, after protein precipitation with TCA and removal by centrifugation.
Each series of analysis was performed in duplicate. The comparison between the values of carboxypeptidase activity of treated and untreated samples was done using the average value of each series of analysis.
The basic idea was to “freeze” the physiologic protein hydrolysis enzymatic activity and to re-establish the process simply solubilizing the proteolytic enzymatic system in suitable buffers, which were 0.1 M phosphate pH 6.5 and 0.1 M tris-HCl pH 7.7, for evaluating both the carboxypeptidase and the endopeptidase activities according to the method described by Hile et al. 1972; Funkhouser et al. 1980.
Cotton seeds (cv. Carmela) were obtained from “Semillas Battle”, Barcelona (E).
The seeds were previously rinsed in tap water and then imbibed with aeration in distilled water over night (Funkhouser, E. A. et al., Z. Pflanzenphysiol., 1980, 100, 319-324).
The plastic boxes containing seeds were covered by a plastic film and placed in a germinator in the dark for 4 days at 30° C. as described in Hile, J. N. and Dure, L. S. J. Biol. Chem., 1972, 247: 5034-5040.
The cotton sprouts of 4 days were collected and frozen in liquid nitrogen and freeze dried (Hile et al. 1972). After this process, the material was crushed in a pestle and freed from fibrous material and settled up to obtain a pretty homogeneous meal of about 0.5 mesh.
The meals were defatted using n-hexane (1:10 w/v) at room temperature and then treated with acetone at −20° C. to remove pigments and polyphenolic compounds, in this case mainly gossypol. The powders obtained were stored in a dry box at room temperature.
The acetonic powder (30 mg) was suspended in buffer (4 ml) and incubated at 37° C. for 30, 60, 90, 120 minutes. The proteolysis was stopped adding 1 ml of 12% trichloroacetic acid. In this case, the buffer used was 0.1 M phosphate pH 6.5 (Hile et al. 1972). The control was a suspension of the same sample prepared in the same way but, in this case, it was immediately deactivated, adding 1 ml of trichloroacetic acid. The trials with treated and untreated samples were carried out at the same time.
Proteins were precipitated with trichloroacetic acid and then removed by filtration, before with Whatman paper n. 4 and then by micro-filtration (Orange Scientific Braine I'Alleud, Belgium (Ø0.2 μm)). Finally, the hydrolyzed protein samples were analyzed as clear solutions by determining the absorbance at 280 nm in a quartz cuvette.
Each series of analysis was performed twice. The comparison between the values of carboxypeptidase activity of treated and untreated samples was done using the average value of each series of analysis.

[2] = test system: peptidase activity in cotton plants; assay: Photometric assay of peptidase activity with DL-BAPA as substrate in cotton plants; format: in vivo, cotton (cv. Sicala V2i); conditions: for Peptidase activity, PBO treated cv. V2i Bt: DL-BAPA substrate
Protocol: The photometric assay was carried out following the DL-BAPA hydrolysis at 410 nm. One peptidase unit (U) was defined as the amount of the enzyme, which produces one unit of absorbance variation at 410 nm/minute at pH 8.2 and 30° C. For each extract, the amount of soluble proteins in mg was determined by the Biuret method and the enzymatic activity was then expressed as specific activity i.e. Units/mg soluble proteins.
Each analysis was performed in duplicate or in triplicate and the standard deviation for each point is also indicated. Abscissa: time (days); ordinate: trypsin units/mg soluble protein.
The samples were collected at different development stages of plants, which were: […], 60 and 85 days after sowing. These samples were also analysed for determining the Bt content (as described in example 4). To this aim, the enzymatic activity was tested on crude freeze dried leaf extracts with two different assays: the Radial Diffusion Assay (RDA), in which a protein, such as the bovine gelatine, was used as a substrate to test the endopeptidase activity, and a photometric assay described in the next example, in which DL-BAPA was used as a substrate, to determine a general peptidase activity.
A powder aliquot, which represents each step of plant growth, of the treated and controls samples was extracted in two steps. The powder sample was extracted with buffer 0.1 M Tris-HCl pH 7.7 (1:20 w/v) using an Ultraturrax blender at 24,000×RPM for 2 min in a ice bath to avoid overheating. […] The clear supernatant was collected and filtrated with Whatman paper no 4. The pellet was further extracted with the same procedure, with the exception that in this case the extraction ratio was 1:10 (w/v). Finally, the supernatants of the two extractions processes were joined and then concentrated 4-5 times by centrifugation at 3,000×g at 15° C. for 2 hours, using suitable concentrators (Amicon Inc. Beverly, Mass.—USA), fitted with a membrane of 10 κD cut off.
For each extract, the amount of soluble proteins was determined by the Biuret method and the enzymatic activity was then expressed as specific activity i.e. Units/mg soluble proteins.
The photometric assay was carried out as described in Erlanger, B. F. et al. Arch. Biochem., 1961, 95: 271-278. In the assay is measured the absorbance variation due to DL-BAPA hydrolysis at 410 nm. The assay was performed mixing directly in the cuvette 20 μl of cotton crude extract with 980 μl of DL-BAPA in buffer 0.1 M Tris-HCl pH 8.2. One peptidase unit was defined as the amount of the enzyme which produces one unit of absorbance variation (410 nm) per minute at pH 8.2 and 30° C.
Each series of analysis was performed in duplicate or triplicate. […] In this figure is shown a maximum of peptidase activity around 60 days of development. […] A statistically significant inhibition is observed during the most part of the plant growing cycle. Finally, in table 7 is shown the specific activities of peptidase of treated and untreated Sicala V2i cotton samples. In this table it is also reported the activity differences in percentage between the treated and untreated samples.

bromelain = bromelain (Ananas comosus, UniProt P14518); assay: biochemical
Protocol: Reverse micelles assay of ISO-AOT 50 mM (AOT: twin aerosol (2-ethylhexylsodiumsulfosuccinate in isooctane (ISO)); Wo (H2O/AOT)=28
The assays were carried out in the reverse-micelles assay dispersed in organic solvent, described by Walde et al. in Eur. J. Biochem., 1988, 173:401-409, and already reported in the literature in kinetic studies of the inhibition of trypsin with natural and synthetic inhibitors. […]
The enzyme assay on reverse-micelle has been already described in the literature for the enzyme trypsin and was adapted to different enzymes. […] To this solution was added an appropriate volume of substrate CBZ (dissolved in acetonitrile/H2O, 80:20 (v/v) at a concentration of 15 mM) and following further agitation (the solution returned to being transparent), the change in absorbance was measured (Dabs) at 340 nm with a Cary 219 spectrophotometer.
The experimental data obtained are represented graphically in the form of Dixon-plot (described for example in: “Quantitative Problems in Biochemistry”, E A. Dawes, 5th ed. 1972 Baltimore, The Williams and Wilkins Company), in the FIGS. 1, 2 and 3.

[3] = Time 0 (immediately deactivated)

bromelain, sequence (P14518 whole entry): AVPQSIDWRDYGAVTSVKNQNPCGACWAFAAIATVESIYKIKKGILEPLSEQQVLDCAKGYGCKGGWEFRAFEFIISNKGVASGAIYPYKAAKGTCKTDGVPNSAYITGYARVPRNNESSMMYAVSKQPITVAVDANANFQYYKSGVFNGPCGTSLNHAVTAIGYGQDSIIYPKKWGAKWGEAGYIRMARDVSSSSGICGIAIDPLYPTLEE

CCCCOCCOCCOCc1cc2c(cc1CCC)OCO2 [PBO, 5-[[2-(2-Butoxyethoxy)ethoxy]methyl]-6-propyl-1,3-benzodioxole]
proteolytic activity related to carboxypeptidase in treated samples ([1]; FIG. 4, treated vs untreated cotton sprouts): lower than in the untreated ones | absorbance at 280 nm, Exp. n° 1, PBO Treated Cotton Sprouts [1, 3]: 0.632 | absorbance at 280 nm, Exp. n° 2, PBO Treated Cotton Sprouts [1, 3]: 0.729 | absorbance at 280 nm, Mean, PBO Treated Cotton Sprouts [1, 3]: 0.68 | % difference of carboxypeptidase activity, treated vs untreated ([1]; Time 30′): 55.7% | Δ U (carboxypeptidase activity, untreated vs PBO treated) ([1]; Time 30′): 0.083 U | Carboxypeptidase Activity (U), PBO Treated Cotton Sprouts ([1]; Time 30′): 0.066 U | absorbance at 280 nm, Exp. n° 1, PBO Treated Cotton Sprouts ([1]; Time 30′): 0.730 | absorbance at 280 nm, Exp. n° 2, PBO Treated Cotton Sprouts ([1]; Time 30′): 0.763 | absorbance at 280 nm, Mean, PBO Treated Cotton Sprouts ([1]; Time 30′): 0.746 | % difference of carboxypeptidase activity, treated vs untreated ([1]; Time 60′): 39.3% | Δ U (carboxypeptidase activity, untreated vs PBO treated) ([1]; Time 60′): 0.081 U | Carboxypeptidase Activity (U), PBO Treated Cotton Sprouts ([1]; Time 60′): 0.125 U | absorbance at 280 nm, Exp. n° 1, PBO Treated Cotton Sprouts ([1]; Time 60′): 0.752 | absorbance at 280 nm, Exp. n° 2, PBO Treated Cotton Sprouts ([1]; Time 60′): 0.858 | absorbance at 280 nm, Mean, PBO Treated Cotton Sprouts ([1]; Time 60′): 0.805 | % difference of carboxypeptidase activity, treated vs untreated ([1]; Time 90′): 43.5% | Δ U (carboxypeptidase activity, untreated vs PBO treated) ([1]; Time 90′): 0.087 U | Carboxypeptidase Activity (U), PBO Treated Cotton Sprouts ([1]; Time 90′): 0.113 U | absorbance at 280 nm, Exp. n° 1, PBO Treated Cotton Sprouts ([1]; Time 90′): 0.880 | absorbance at 280 nm, Exp. n° 2, PBO Treated Cotton Sprouts ([1]; Time 90′): 0.838 | absorbance at 280 nm, Mean, PBO Treated Cotton Sprouts ([1]; Time 90′): 0.859 | % difference of carboxypeptidase activity, treated vs untreated ([1]; Time 120′): 61.0% | Δ U (carboxypeptidase activity, untreated vs PBO treated) ([1]; Time 120′): 0.158 U | Carboxypeptidase Activity (U), PBO Treated Cotton Sprouts ([1]; Time 120′): 0.101 U | absorbance at 280 nm, Exp. n° 1, PBO Treated Cotton Sprouts ([1]; Time 120′): 0.775 | absorbance at 280 nm, Exp. n° 2, PBO Treated Cotton Sprouts ([1]; Time 120′): 0.787 | absorbance at 280 nm, Mean, PBO Treated Cotton Sprouts ([1]; Time 120′): 0.781 | Difference % Treated minus untreated (peptidase, DL-BAPA) ([2]; 4 days after sowing): 4.99% | Peptidase activity, PBO treated cv. V2i Bt ([2]; 4 days after sowing): 5.21 U/mg of soluble protein × 10^−2 | Difference % Treated minus untreated (peptidase, DL-BAPA) ([2]; 35 days after sowing): −23.54% | Peptidase activity, PBO treated cv. V2i Bt ([2]; 35 days after sowing): 9.43 U/mg of soluble protein × 10^−2 | Difference % Treated minus untreated (peptidase, DL-BAPA) ([2]; 60 days after sowing): −25.55% | Peptidase activity, PBO treated cv. V2i Bt ([2]; 60 days after sowing): 13.62 U/mg of soluble protein × 10^−2 | Difference % Treated minus untreated (peptidase, DL-BAPA) ([2]; 85 days after sowing): 18.68% | Peptidase activity, PBO treated cv. V2i Bt ([2]; 85 days after sowing): 12.42 U/mg of soluble protein × 10^−2 | IC50 (bromelain): 400 µM | Ki (bromelain): 100 µM
